Source: paper PMC10448909 (Cancer Research Communications, 2023)
Like-named read-outs stand apart in the source and are kept apart here.

How the values were obtained:
advanced solid tumors [1] = conditions: patients with advanced solid tumors; cited from earlier work
advanced solid tumors [2] = test: Antitumor activity by RECIST v1.1; format: in vivo, human
Description: Efficacy endpoints included best overall response [BOR: complete response (CR), partial response (PR), stable disease (SD), or progressive disease] according to the RECIST v1.1. criteria ([20]), clinical benefit (defined as CR, PR, or SD for ≥12 weeks) and progression-free survival (PFS). PFS was defined as time from first dose to objective disease progression or death, whichever occurred first. CT scans or MRI were performed predose to document the baseline tumor status using the most appropriate criteria for the malignancy type. Target and non-target lesions were selected on the basis of the initial scan. Clinical efficacy was assessed by the investigators according to RECIST v1.1 every two cycles (starting on day 1 of cycle 3).
For the efficacy analysis, objective response and clinical benefit were summarized and 95% exact Clopper–Pearson confidence intervals (CI) were estimated ([21]). Kaplan–Meier estimates were calculated for PFS and the CI for the median PFS was calculated according to Brookmeyer and Crowley ([22]).

MetAP2 [3] = test: Met-EF1α pharmacodynamic biomarker in white blood cells; format: in vivo, human; conditions: 12 mg once daily and higher, from cycle 1, day 15 onward; no obvious dose correlation
Source text: (§1) Tumor biopsies were collected during the screening period and on cycle 2, day 1. White blood cell (WBC) samples were collected during the screening period, predose on days 1, 2, 8, and 15 of cycle 1 and postdose on days 1 and 15 of cycle 1. In addition, WBC samples were collected predose on days 1 and 15 of cycle 2.
(§2) No formal significance level was defined for this study and all analyses were considered descriptive.

[4] = tested on: human tumor cell xenografts in mice; parameters: method as in El Bawab S, personal communication; conditions: defined by preclinical modeling; ref El Bawab S, personal communication; cited from earlier work
[5] = tested on: patient-derived renal cell carcinoma xenografts; parameters: method as in earlier work; conditions: with sunitinib, cabozantinib, axitinib; Friese-Hamim M, personal communication; cited from earlier work
MetAP2 [6] = test: Met-EF1α pharmacodynamic biomarker in tumor biopsies; format: in vivo, human; conditions: cycle 2, day 1
Source text: as §1, §2

[7] = tested on: metastatic renal carcinoma; parameters: method as in PMID 10561320; conditions: phase II, patients with metastatic renal carcinoma; cited from earlier work
[8] = cited from earlier work
[9] = cited from earlier work; remark: listed apart in the source

In the case of CO[C@@H](C(=O)N[C@H]1CC[C@@H](OC(=O)C2CCCCC2)CNC1=O)[C@H](O)[C@@H](O)[C@H](O)/C=C/C(C)(C)C [LAF389], the Objective responses (advanced solid tumors [1]) is listed as “failed to show any objective responses”.
For O=C(NCc1cc(F)cc(F)c1)[C@@]1(O)CCN(c2ccc3[nH]ccc3c2)C1=O [M8891], the “Duration of stable disease” value (advanced solid tumors [2]; 7 patients with BOR of SD) was 42 to 123 days, the Objective responses (advanced solid tumors [2]; all doses, n = 27) was “no objective responses” and the “Pharmacodynamic response in WBCs” value (MetAP2 [3]) was “low and variable pharmacodynamic response”. For the same compound, the “Target Met-EF1α level expected to be correlated with efficacy” value [4] was 125 μg/mg protein, the “Antitumor activity in combination with VEGFR-targeted TKIs” value [5] was “strong and durable antitumor activity” and the “Met-EF1α accumulation in tumors” value (MetAP2 [6]; 7 to 35 mg once daily) was “tended to increase up to 35 mg once daily in a dose-dependent manner”. The “Met-EF1α levels in tumor” value (MetAP2 [6]; ≥35 mg once daily) was no less than 125 μg/mg protein.
In the case of CO[C@@H]1[C@H](OC(=O)NC(=O)CCl)CC[C@]2(CO2)[C@H]1[C@@]1(C)O[C@@H]1CC=C(C)C [TNP-470], the Objective responses [7] is listed as “failed to show any significant objective responses”, the “Neurotoxicity in phase I studies” value [8] is listed as “considerable neurotoxicity” and the “Pharmacokinetic variability in phase I studies” value [9] is listed as “high pharmacokinetic variability”.
